Experimental data published in patent publication US4241052A, “Novel nitrosourea compounds and process for preparing the same” (Tanabe Seiyaku Co., Ltd., priority 1978, dated 1980).

Columns and labels:
[1] = system: Ehrlich ascites carcinoma; assay: Preventive effect against the growth of Ehrlich ascites carcinoma (Method A); type: in vivo, mice (ICR, female); details: for therapeutic index (M.T.D./M.E.D.), times greater than that of GANU: Ehrlich ascites tumor, relative to GANU; for inhibition in vivo at 0.39 mg/kg: 0.39 mg/kg/day i.p.; for inhibition in vivo at 0.78 mg/kg: 0.78 mg/kg/day i.p.; for inhibition in vivo at 1.56 mg/kg: 1.56 mg/kg/day i.p.; for inhibition in vivo at 25 mg/kg: 25 mg/kg/day i.p.; for minimal effective dose: 168 h, min dose, 100% inhibition, read-out: MED (Minimum Effective Dose); for inhibition in vivo at 0.19 mg/kg: 0.19 mg/kg/day i.p.
Procedure: (§1) (A) Preventive effect against the growth of Ehrlich ascites tumor
(§2) 10^6 tumor cells of Ehrlich ascites carcinoma were inoculated intraperitoneally into a group of five femal mice (ICR mice, body weight: 19-23 g). A test compound was dissolved in a physiological saline solution and administered intraperitoneally to the mice. The administration of the test compound was began 24 hours after the inoculation of the tumor cells and performed once a day for 5 days. The volume of ascites in the treated mice were measured after 7 days of the experiment.

[2] = system: Leukemia L-1210; assay: Effect on life span of mice implanted with leukemic cells of L-1210 (Method B); type: in vivo, mice (BDF1, male); details: for increase in the average life span: five consecutive days; for 60-day survivors (mice survived/mice used) / ILS: 5 days
Procedure: (B) Effect on the life span of mice implanted with leukemic cells of L-1210
10^5 leukemic cells of L-1210 were inoculated intraperitoneally into a group of four male mice (BDF1 mice, body weight: 19-23 g). A test compound was dissolved in a physiological saline solution and administered intraperitoneally to the mice. The administration of the test compound was began 24 hours after the inoculation of the leukemic cells and performed once a day for 5 days. The survival days of the treated mice were observed.

[3] = Preventive effect against the growth of Ehrlich ascites carcinoma (Method A); type: in vivo, mice (ICR, female); details: mouse, in vivo, ip; max dose, 100% inhibition without death; doses of the table in mg/kg/day; read-out: MTD (Maximum Tolerated Dose)
Procedure: as §1, §2

[4] = Mus musculus, Ehrlich, ip, 120 h, 5 days, read-out: Inhibition ratio
[5] = Mus musculus, Ehrlich, ip, 120 h, 6.25 mg/kg/day i.p., 5 days, read-out: Inhibition ratio
[6] = Mus musculus, Ehrlich, ip, 120 h, 100 mg/kg/day i.p., 5 days, read-out: Inhibition ratio
[7] = Mus musculus, Ehrlich, ip, 120 h, 400 mg/kg/day i.p., 5 days, read-out: Inhibition ratio
[8] = Mus musculus, Ehrlich, ip, doses of the table in mg/kg/day
[9] = Mus musculus, Ehrlich, ip, 120 h, 3.12 mg/kg/day i.p., 5 days, read-out: Inhibition ratio
[10] = Mus musculus, Ehrlich, ip, 120 h, 12.5 mg/kg/day i.p., 5 days, read-out: Inhibition ratio
[11] = Mus musculus, Ehrlich, ip, 120 h, 50 mg/kg/day i.p., 5 days, read-out: Inhibition ratio

SMILES	Therapeutic index (MTD/MED) [1]	MTD at 168 h [3]	inhibition in vivo at 0.39 mg/kg [1, 4]	inhibition in vivo at 0.78 mg/kg [1, 4]	inhibition in vivo at 1.56 mg/kg [1, 4]	inhibition in vivo at 6.25 mg/kg [1, 5]	inhibition in vivo at 25 mg/kg [1, 4]	inhibition in vivo at 100 mg/kg [1, 6]	minimal effective dose [1, 8]	other results
COc1ccc(CN(C(=O)N(CCCl)N=O)C2O[C@H](CO)[C@@H](O[C@H]3O[C@H](CO)[C@@H](O)[C@H](O)[C@H]3O)[C@H](O)[C@H]2O)cc1 (some centres unmarked)										therapeutic index (M.T.D./M.E.D.), times greater than that of GANU [1]: about 8 times
O=NN(CCCl)C(=O)N(Cc1cccs1)C1O[C@H](CO)[C@@H](O[C@H]2O[C@H](CO)[C@@H](O)[C@H](O)[C@H]2O)[C@H](O)[C@H]1O (some centres unmarked)										therapeutic index (M.T.D./M.E.D.), times greater than that of GANU [1]: about 8 times
O=NN(CCCl)C(=O)N(Cc1ccccc1)C1O[C@H](CO)[C@@H](O[C@H]2O[C@H](CO)[C@@H](O)[C@H](O)[C@H]2O)[C@H](O)[C@H]1O (some centres unmarked)										therapeutic index (M.T.D./M.E.D.), times greater than that of GANU [1]: about 8 times
O=NN(CCCl)C(=O)N(CC1CO1)C1OC[C@H](O)[C@H](O)[C@H]1O (stereo partly drawn) [1-(2-chloroethyl)-1-nitroso-3-(oxiran-2-yl-methyl)-3-(L-arabinopyranosyl)urea]										increase in the average life span ([2]; 1.05 mg/kg i.p.): about 30%
O=NN(CCCl)C(=O)N(Cc1cccs1)C1OC[C@H](O)[C@H](O)[C@H]1O (stereo partly drawn) [1-(2-chloroethyl)-1-nitroso-3-(thiophen-2-yl-methyl)-3-(L-arabinopyranosyl)urea]										increase in the average life span ([2]; 0.35 mg/kg i.p.): about 30%
O=NN(CCCl)C(=O)N(CC1CC1)C1OC[C@H](O)[C@H](O)[C@H]1O (stereo partly drawn) [1-(2-chloroethyl)-1-nitroso-3-cyclopropylmethyl-3-(L-arabinopyranosyl)urea]										increase in the average life span ([2]; 1.1 mg/kg i.p.): about 30%
O=NN(CCCl)C(=O)N(CC1CCCO1)C1O[C@H](CO)[C@H](O)[C@H](O)[C@H]1O (stereo partly drawn) [1-(2-chloroethyl)-1-nitroso-3-tetrahydrofurfuryl-3-(D-galactopyranosyl)urea]										increase in the average life span ([2]; 1.7 mg/kg i.p.): about 30%
O=NN(CCCl)C(=O)NC1CCCCC1 [CCNU, 1-(2-chloroethyl)-1-nitroso-3-cyclohexylurea, reference compound]	4									Inhibition ratio ([1]; 3.12 mg/kg/day i.p., 5 days): 21.1%; Inhibition ratio ([1]; 6.25 mg/kg/day i.p., 5 days): 33.3%; Inhibition ratio ([1]; 12.5 mg/kg/day i.p., 5 days): 100%; Inhibition ratio ([1]; 50 mg/kg/day i.p., 5 days): 100%; Toxic (number of mice died/number of mice used) ([1]; 100 mg/kg/day i.p., 5 days): 5/5; MTD (Maximum Tolerated Dose) ([1]; max dose, 100% inhibition without death, doses of the table in mg/kg/day, 10080 min): 50
O=NN(CCCl)C(=O)N(Cc1ccccc1)C1O[C@H](CO)[C@@H](O[C@H]2O[C@H](CO)[C@@H](O)[C@H](O)[C@H]2O)[C@H](O)[C@H]1O (stereo partly drawn) [Compound 1, 1-(2-chloroethyl)-1-nitroso-3-benzyl-3-[O-α-D-glucopyranosyl-(1→4)-D-glucopyranosyl]urea]	256	400 mg/kg/day	9.3%	66.7%	100%	100%	100%	100%	1.56 mg/kg/day	Toxic (number of mice died/number of mice used) ([1]; 800 mg/kg/day i.p., 5 days): 5/5; inhibition in vivo at 400 mg/kg [1, 7]: 100%; 60-day survivors (mice survived/mice used) ([2]; 25 mg/kg/day i.p.): 0/4; ILS ([2]; 25 mg/kg/day i.p.): 55.2%; 60-day survivors (mice survived/mice used) ([2]; 100 mg/kg/day i.p.): 1/4; ILS ([2]; 100 mg/kg/day i.p.): > 236.8%; 60-day survivors (mice survived/mice used) ([2]; 200 mg/kg/day i.p.): 4/4; ILS ([2]; 200 mg/kg/day i.p.): > 589.7%
Cc1ccc(CN(C(=O)N(CCCl)N=O)C2O[C@H](CO)[C@@H](O[C@H]3O[C@H](CO)[C@@H](O)[C@H](O)[C@H]3O)[C@H](O)[C@H]2O)cc1 (stereo partly drawn) [Compound 2, 1-(2-chloroethyl)-1-nitroso-3-(p-methylbenzyl)-3-[O-α-D-glucopyranosyl-(1→4)-D-glucopyranosyl]urea]	256	400 mg/kg/day	12.8%	74.4%	100%	100%	100%	100%	1.56 mg/kg/day	Toxic (number of mice died/number of mice used) ([1]; 800 mg/kg/day i.p., 5 days): 5/5; inhibition in vivo at 400 mg/kg [1, 7]: 100%
O=NN(CCCl)C(=O)N(CCc1ccccc1)C1O[C@H](CO)[C@@H](O[C@H]2O[C@H](CO)[C@@H](O)[C@H](O)[C@H]2O)[C@H](O)[C@H]1O (stereo partly drawn) [Compound 4, 1-(2-chloroethyl)-1-nitroso-3-phenethyl-3-[O-α-D-glucopyranosyl-(1→4)-D-glucopyranosyl]urea]	64	200 mg/kg/day		2.6%	66.7%				3.12 mg/kg/day	Toxic (number of mice died/number of mice used) ([1]; 400 mg/kg/day i.p., 5 days): 5/5; inhibition in vivo at 3.12 mg/kg [1, 9]: 100%; inhibition in vivo at 12.5 mg/kg [1, 10]: 100%; inhibition in vivo at 50 mg/kg [1, 11]: 100%; inhibition in vivo at 200 mg/kg ([1]; Mus musculus, Ehrlich, ip, 120 h, 200 mg/kg/day i.p., 5 days, read-out: Inhibition ratio): 100%
CC(c1ccccc1)N(C(=O)N(CCCl)N=O)C1O[C@H](CO)[C@@H](O[C@H]2O[C@H](CO)[C@@H](O)[C@H](O)[C@H]2O)[C@H](O)[C@H]1O (stereo partly drawn) [Compound 5, 1-(2-chloroethyl)-1-nitroso-3-(α-methylbenzyl)-3-[O-α-D-glucopyranosyl-(1→4)-D-glucopyranosyl]urea]	128	400 mg/kg/day			6.2%	100%	100%	100%	3.12 mg/kg/day	Toxic (number of mice died/number of mice used) ([1]; 800 mg/kg/day i.p., 5 days): 4/5; inhibition in vivo at 3.12 mg/kg [1, 9]: 100%; inhibition in vivo at 400 mg/kg [1, 7]: 100%
O=NN(CCCl)C(=O)N(Cc1cccs1)C1O[C@H](CO)[C@@H](O[C@H]2O[C@H](CO)[C@@H](O)[C@H](O)[C@H]2O)[C@H](O)[C@H]1O (stereo partly drawn) [Compound 7, 1-(2-chloroethyl)-1-nitroso-3-(thiophen-2-yl-methyl)-3-[O-α-D-glucopyranosyl-(1→4)-D-glucopyranosyl]urea]	256	400 mg/kg/day	6.2%	31.2%	100%	100%	100%	100%	1.56 mg/kg/day	Toxic (number of mice died/number of mice used) ([1]; 800 mg/kg/day i.p., 5 days): 5/5; inhibition in vivo at 400 mg/kg [1, 7]: 100%
O=NN(CCCl)C(=O)N(Cc1ccccc1)C1OC[C@H](O)[C@H](O)[C@H]1O (stereo partly drawn) [Compound 11, 1-(2-chloroethyl)-1-nitroso-3-benzyl-3-(L-arabinopyranosyl)urea]	128	100 mg/kg/day	65.3%	100%	100%	100%	100%	100%	0.78 mg/kg/day	Toxic (number of mice died/number of mice used) ([1]; 200 mg/kg/day i.p., 5 days): 5/5; inhibition in vivo at 0.19 mg/kg [1, 4]: 18.4%
O=NN(CCCl)C(=O)N(CC1CO1)C1OC[C@H](O)[C@H](O)[C@H]1O (stereo partly drawn) [Compound 12, 1-(2-chloroethyl)-1-nitroso-3-(oxiran-2-yl-methyl)-3-(L-arabinopyranosyl)urea]	128	50 mg/kg/day	100%	100%					0.39 mg/kg/day	Toxic (number of mice died/number of mice used) ([1]; 100 mg/kg/day i.p., 5 days): 5/5; inhibition in vivo at 0.19 mg/kg [1, 4]: 20.9%; inhibition in vivo at 3.12 mg/kg [1, 9]: 100%; inhibition in vivo at 12.5 mg/kg [1, 10]: 100%; inhibition in vivo at 50 mg/kg [1, 11]: 100%
O=NN(CCCl)C(=O)N(Cc1ccco1)C1O[C@H](CO)[C@@H](O)[C@H]1O (stereo partly drawn) [Compound 14, 1-(2-chloroethyl)-1-nitroso-3-furfuryl-3-(D-ribofuranosyl)urea]	64	100 mg/kg/day	18.4%	30.6%	100%	100%	100%	100%	1.56 mg/kg/day	Toxic (number of mice died/number of mice used) ([1]; 200 mg/kg/day i.p., 5 days): 5/5
